Assay results published in patent publication US8669247B2, “2,5-disubstituted arylsulfonamide CCR3 antagonists” (Axikin Pharmaceuticals, Inc., priority 2009, dated 2014).
pKi: −log10 of the molar value.

Target: T1, CCR3 receptor (UniProt P51677)
T1 sequence (P51677 1-355): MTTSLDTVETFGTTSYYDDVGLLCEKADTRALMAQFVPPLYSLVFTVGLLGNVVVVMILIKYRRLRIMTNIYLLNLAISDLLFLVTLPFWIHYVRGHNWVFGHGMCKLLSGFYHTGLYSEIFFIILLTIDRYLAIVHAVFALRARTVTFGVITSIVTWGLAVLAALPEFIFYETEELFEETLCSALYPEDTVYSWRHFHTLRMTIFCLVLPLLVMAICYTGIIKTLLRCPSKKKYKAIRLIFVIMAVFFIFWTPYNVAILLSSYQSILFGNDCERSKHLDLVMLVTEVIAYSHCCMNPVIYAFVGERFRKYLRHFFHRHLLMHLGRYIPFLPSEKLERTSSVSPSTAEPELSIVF
Assay: CCR3 Receptor Binding Assay ([125I]-labeled human eotaxin/CCL11 displacement on cells)
Description: Cells were washed once with PBS and resuspended in a binding buffer (25 mM HEPES pH 7.6, 5 mM MgCl2, 1 mM CaCl2, 0.5% BSA, 0.1% NaN3), […] of cell suspension (2×10^5 cells/well) and 0.1 nM [^125I]-labeled human eotaxin/CCL11 (2000 Ci/mmol specific activity) were mixed in a 96-well U-bottom polypropylene plate, and incubated for 60 min at room temperature for the binding reaction. The cell suspension was then transferred to a filtration plate (#MAFB, Millipore), and washed 3 times with the binding buffer containing 0.5 M NaCl, scintillant added, and the radioactivity was counted on a TopCount (Packard). For the determination of non-specific binding, the cell suspension and [^125I]-labeled human eotaxin/CCL11 were incubated in the presence of 500 nM of unlabeled human eotaxin/CCL11. See, lino et al., “Molecular cloning and functional characterization of cynomolgus monkey (Macaca fascicularis) CC chemokine receptor, CCR3,” Cytokine 2002, 19, 276-286.

[1] = Free (free form of the compound)
[2] = HCl: hydrochloric acid salt of the corresponding compound

pKi [1]	pKi [2]	Compound
≥ 8.00	≥ 8.00	CC(C)N1CCN(S(=O)(=O)c2cc(C#N)ccc2Sc2cc(Cl)ccc2Cl)CC1 [Compound 77, 4-(2,5-Dichlorophenylthio)-3-(4-isopropylpiperazin-1-ylsulfonyl)benzonitrile]
< 8.30		CCN1CCN(S(=O)(=O)c2cc([N+](=O)[O-])ccc2Oc2cc(C)ccc2C)CC1 [Compound 102, 1-(2-(2,5-Dimethylphenoxy)-5-nitrophenylsulfonyl)-4-ethylpiperazine]
≥ 8.00	≥ 8.00	N#Cc1ccc(Sc2cc(Cl)ccc2Cl)c(S(=O)(=O)N2CCC(N3CCCC3)CC2)c1 [Compound 84, 4-(2,5-Dichlorophenylthio)-3-(4-(pyrrolidin-1-yl)piperidin-1-ylsulfonyl)benzonitrile]
6.30 to 7.00		CC(C)(O)C1CCN(S(=O)(=O)c2cc(C#N)ccc2Oc2cc(Cl)ccc2Cl)CC1 [Compound 97, 4-(2,5-Dichlorophenoxy)-3-(4-(2-hydroxypropan-2-yl)piperidin-1-ylsulfonyl)benzonitrile]
< 8.30		CCC(CC)N1CCN(S(=O)(=O)c2cc(C#N)ccc2Oc2cc(F)ccc2F)CC1 [Compound 55, 4-(2,5-Difluorophenoxy)-3-(4-(pentan-3-yl)piperazin-1-ylsulfonyl)benzonitrile]
≥ 8.00		CC(C)N1CCN(S(=O)(=O)c2cc(C#N)ccc2Oc2cc(Cl)ccc2Cl)CC1 [Compound 88, 4-(2,5-Dichlorophenoxy)-3-(4-isopropylpiperazin-1-ylsulfonyl)benzonitrile]
7.00 to 7.60		CC1CN(S(=O)(=O)c2cc(C#N)ccc2Oc2cc(F)ccc2F)CC(C)N1 (stereo not shown) [Compound 53, 4-(2,5-Difluorophenoxy)-3-(3,5-dimethylpiperazin-1-ylsulfonyl)benzonitrile]
7.00 to 7.60	6.30 to 7.00	Cc1ccc(C)c(Sc2ccc(C#N)cc2S(=O)(=O)N2CCN(C3CCCC3)CC2)c1 [Compound 69, 3-(4-Cyclopentylpiperazin-1-ylsulfonyl)-4-(2,5-dimethylphenylthio)-benzonitrile]
≥ 8.00	≥ 8.00	N#Cc1ccc(Sc2cc(Cl)ccc2Cl)c(S(=O)(=O)N2CCNCC2)c1 [Compound 76, 4-(2,5-Dichlorophenylthio)-3-(piperazin-1-ylsulfonyl)benzonitrile]
	7.00 to 7.60	CCN(CC)CCNS(=O)(=O)c1cc(C#N)ccc1Sc1cc(C)ccc1C [Compound 73, 5-Cyano-N-(2-(diethylamino)ethyl)-2-(2,5-dimethylphenylthio)-benzenesulfonamide]
< 8.30	7.00 to 7.60	O=[N+]([O-])c1ccc(Oc2cc(Cl)ccc2Cl)c(S(=O)(=O)N2CCNCC2)c1 [Compound 147, 1-(2-(2,5-Dichlorophenoxy)-5-nitrophenylsulfonyl)piperazine]
7.60 to 8.00		CCCC(C)N1CCN(S(=O)(=O)c2cc(C#N)ccc2Oc2cc(Cl)ccc2Cl)CC1 (stereo not shown) [Compound 90, 4-(2,5-Dichlorophenoxy)-3-(4-(pentan-2-yl)piperazin-1-ylsulfonyl)-benzonitrile]
7.00 to 7.60	7.00 to 7.60	CCC(CC)N1CCN(S(=O)(=O)c2cc(C#N)ccc2Sc2cc(Cl)ccc2Cl)CC1 [Compound 78, 4-(2,5-Dichlorophenylthio)-3-(4-(pentan-3-yl)piperazin-1-ylsulfonyl)-benzonitrile]
6.30 to 7.00		N#Cc1ccc(Oc2cc(Cl)ccc2Cl)c(S(=O)(=O)NCCN2CCOCC2)c1 [Compound 95, 5-Cyano-2-(2,5-dichlorophenoxy)-N-(2-morpholinoethyl)benzenesulfonamide]
	< 8.30	CCN(CC)CCNS(=O)(=O)c1cc(C#N)ccc1Oc1cc(F)ccc1F [Compound 62, 5-Cyano-N-(2-(diethylamino)ethyl)-2-(2,5-difluorophenoxy)benzenesulfonamide]
≥ 8.00		O=C1CN(S(=O)(=O)c2cc([N+](=O)[O-])ccc2Sc2cc(Cl)ccc2Cl)CCN1 [Compound 124, 4-(2-(2,5-Dichlorophenylthio)-5-nitrophenylsulfonyl)piperazin-2-one]
	7.00 to 7.60	CC(C)N1CCCN(S(=O)(=O)c2cc(C#N)ccc2Oc2cc(Cl)ccc2Cl)CC1 [Compound 98, 4-(2,5-Dichlorophenoxy)-3-(4-isopropyl-1,4-diazepan-1-ylsulfonyl)benzonitrile]
≥ 8.00		Cc1ccc(C)c(Oc2ccc([N+](=O)[O-])cc2S(=O)(=O)N2CCN(C3CCCCC3)CC2)c1 [Compound 121, 1-Cyclohexyl-4-(2-(2,5-dimethylphenoxy)-5-nitrophenylsulfonyl)piperazine]
7.60 to 8.00	≥ 8.00	Cc1ccc(C)c(Sc2ccc(C#N)cc2S(=O)(=O)N2CCC(N3CCCC3)CC2)c1 [Compound 74, 4-(2,5-Dimethylphenylthio)-3-(4-(pyrrolidin-1-yl)piperidin-1-ylsulfonyl)-benzonitrile]
< 8.30		Cc1ccc(C)c(Sc2ccc([N+](=O)[O-])cc2S(=O)(=O)N2CCN(C3CCCCC3)CC2)c1 [Compound 120, 1-Cyclohexyl-4-(2-(2,5-dimethylphenylthio)-5-nitrophenylsulfonyl)piperazine]
7.60 to 8.00		O=[N+]([O-])c1ccc(Oc2cc(Cl)ccc2Cl)c(S(=O)(=O)N2CCC(N3CCCC3)CC2)c1 [Compound 61]
6.30 to 7.00	7.00 to 7.60	Cc1ccc(C)c(Oc2ccc(C#N)cc2S(=O)(=O)N2CCNCC2)c1 [Compound 51, 4-(2,5-Dimethylphenoxy)-3-(piperazin-1-ylsulfonyl)benzonitrile]
< 8.30	< 8.30	N#Cc1ccc(Oc2cc(F)ccc2F)c(S(=O)(=O)NCCN2CCCC2)c1 [Compound 63, 5-Cyano-2-(2,5-difluorophenoxy)-N-(2-(pyrrolidin-1-yl)ethyl)benzenesulfonamide]
7.00 to 7.60	7.00 to 7.60	N#Cc1ccc(Oc2cc(F)ccc2F)c(S(=O)(=O)N2CCN(C3CCCC3)CC2)c1 [Compound 56, 3-(4-Cyclopentylpiperazin-1-ylsulfonyl)-4-(2,5-difluorophenoxy)benzonitrile]
7.00 to 7.60		CN1CCCN(S(=O)(=O)c2cc(C#N)ccc2Oc2cc(Cl)ccc2Cl)CC1 [Compound 92, 4-(2,5-Dichlorophenoxy)-3-(4-methyl-1,4-diazepan-1-ylsulfonyl)benzonitrile]
≥ 8.00		O=[N+]([O-])c1ccc(Oc2cc(Cl)ccc2Cl)c(S(=O)(=O)N2CCN(C3CCCCC3)CC2)c1 [Compound 119, 1-Cyclohexyl-4-(2-(2,5-dichlorophenoxy)-5-nitrophenylsulfonyl)piperazine]
< 8.30		CC1CCN(S(=O)(=O)c2cc(C#N)ccc2Oc2cc(Cl)ccc2Cl)CC1 [Compound 87, 4-(2,5-Dichlorophenoxy)-3-(4-methylpiperidin-1-ylsulfonyl)benzonitrile]
7.00 to 7.60		CN1CCN(S(=O)(=O)c2cc(C#N)ccc2Oc2cc(Cl)ccc2Cl)CC1 [Compound 96, 4-(2,5-Dichlorophenoxy)-3-(4-methylpiperazin-1-ylsulfonyl)benzonitrile]
< 8.30		Cc1ccc(C)c(Sc2ccc([N+](=O)[O-])cc2S(=O)(=O)N2CCNC(=O)C2)c1 [Compound 125, 4-(2-(2,5-Dimethylphenylthio)-5-nitrophenylsulfonyl)piperazin-2-one]
< 8.30		Cc1ccc(C)c(Sc2ccc(C#N)cc2S(=O)(=O)N2CCNCC2)c1 [Compound 65, 4-(2,5-Dimethylphenylthio)-3-(piperazin-1-ylsulfonyl)benzonitrile]
